According to patent publication US20230295130A1, “COMPOUND USEFUL AS CDK7 KINASE INHIBITOR AND USE THEREOF” (TYK MEDICINES, INC., priority 2020, published 2023):
pIC50: −log10 of the molar value.

Legend:
[1] = tested on: ovarian cancer cells A2780; assay: Cell anti-proliferation experiment, MTT (Table 2); type: cell-based, human; conditions: Homo sapiens, A2780, 72 h, incubate 3 days
Text: (§1) Human breast cancer cells MDA-MB 231, MDA-MB453, ovarian cancer cells OVCAR3 and A2780, colorectal cancer cells HCT-116 and WiDr, and lung cancer cell Calu-6 were purchased from BNCC. DMEM medium (Bio-Channel), DMSO (dimethyl sulfoxide), MTT (thiazole blue), 0.25% EDTA-Tripsin (pancreatin digestive juice), 1×PBS (phosphate buffer, PH7.2), 96-well plate (Corning), fetal bovine serum (FBS), 10,000 U/mL penicillin-G/streptomycin, high-speed freezing centrifuge (EPPENDORF 5810R), enzyme-linked immunosorbent assay (Tecan Spark).
(§2) 1. Cell Plating • A) Tumor cells were cultured to 80-90% density in DMEM (high sugar, containing 10% FBS and 100 U/mL penicillin-G/streptomycin) at 37° C., 5% CO2 and saturated humidity. • B) The culture medium was removed from the 10 cm culture dish. • C) Cells were washed with 10 ml 1×PBS. • D) 4 ml of 0.25% EDTA-Tripsin was added to an incubator to digest pancreatin for 5 minutes at 37° C. and 5% CO2, transferred to a 15 ml centrifuge tube, centrifuged for 5 minutes at 200 g, and supernatant was discarded to obtain cell precipitation. • E) The cell precipitation was resuspended with 4 ml DMEM medium, counted and adjusted to 50,000 cells/ml. • F) Cell suspension was added to a 96-well plate with a volume of 100 μL per well and cultured overnight in a 5% CO2 incubator at 37° C.
(§3) Compound Dilution • A) Preparing the tested compound gradient dilution solution: the tested compounds were prepared into 10 mM and 1 mM storage solution respectively. Firstly, 1 μl and 0.5 μl of 10 mM storage solution were dissolved in 1 ml of DMSO-free culture solution, respectively, to obtain diluted compounds with concentrations of 10 and 5 μM. Then, 1.5 μl of 1 mM storage solution was dissolved in 1.5 ml of DMSO-free culture solution to obtain a dilution compound with a concentration of 1 μM, and then diluted with a 3-fold continuous gradient with […] culture solution for a total of 7 concentrations. The concentrations of all 10 diluted compounds mentioned above were as follows: • 10 μM, 5 μM, 1 μM, 333.33 nM, 111.11 nM, 37.03 nM, 12.35 nM, 4.15 nM, 1.37 nM, 0.46 nM • B) After full mixing, 100 μL of culture compound solution was taken to replace the culture solution in the cell culture plate, with 4 duplicated wells at each concentration; • C) The cells were transferred to incubator to incubate for 3 days.
(§4) 3. MTT Detection • A) The cell culture plate was taken out and added with 5 mg/ml MTT 10 μL in the biosafety cabinet; • B) The cell culture plate was put back into the incubator and continued to incubate for 3 hours; • C) The cell culture plate was taken out to remove the culture solution, 100 μL isopropanol (containing 0.4 mM HCl, 0.1% NP-40) was added, shaking at room temperature for 30 minutes; • D) The absorbance value was measured at 570 nm on TECAN enzyme linked immunosorbent assay.

[2] = tested on: colorectal cancer cells WiDr; assay: Cell anti-proliferation experiment, MTT (Table 2); type: cell-based, human; conditions: Homo sapiens, WiDr, 72 h, incubate 3 days
Text: as §1, §2, §3, §4

[3] = biological target: T1, CDK7/Cyclin H/MAT1 kinase (Homo sapiens (Human), UniProt P50613); assay: Enzyme activity test, mobility shift assay (Table 1); type: biochemical; conditions: 2 mM ATP; pre-incubated 0 and 60 minutes
T1 sequence (P50613 whole entry, the tested form may be a part): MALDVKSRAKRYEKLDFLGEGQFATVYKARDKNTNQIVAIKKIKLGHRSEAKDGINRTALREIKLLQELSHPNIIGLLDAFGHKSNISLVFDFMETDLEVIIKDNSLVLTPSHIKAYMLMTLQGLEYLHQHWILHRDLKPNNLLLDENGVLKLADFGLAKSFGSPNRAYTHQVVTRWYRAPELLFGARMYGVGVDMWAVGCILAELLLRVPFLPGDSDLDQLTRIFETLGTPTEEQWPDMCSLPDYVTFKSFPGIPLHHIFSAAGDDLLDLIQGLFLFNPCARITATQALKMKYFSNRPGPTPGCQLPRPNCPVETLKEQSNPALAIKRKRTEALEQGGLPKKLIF
T1 sequence (P51946 whole entry partner, the tested form may be a part): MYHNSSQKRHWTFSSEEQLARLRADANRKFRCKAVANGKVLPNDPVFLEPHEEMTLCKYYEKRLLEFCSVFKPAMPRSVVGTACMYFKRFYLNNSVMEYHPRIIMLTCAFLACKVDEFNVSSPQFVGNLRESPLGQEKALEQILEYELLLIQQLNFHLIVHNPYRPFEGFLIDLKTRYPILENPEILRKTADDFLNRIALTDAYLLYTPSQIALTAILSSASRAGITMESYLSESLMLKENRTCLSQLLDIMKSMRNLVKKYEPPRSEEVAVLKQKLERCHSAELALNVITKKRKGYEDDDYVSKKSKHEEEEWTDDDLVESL
T1 sequence (P51948 whole entry partner, the tested form may be a part): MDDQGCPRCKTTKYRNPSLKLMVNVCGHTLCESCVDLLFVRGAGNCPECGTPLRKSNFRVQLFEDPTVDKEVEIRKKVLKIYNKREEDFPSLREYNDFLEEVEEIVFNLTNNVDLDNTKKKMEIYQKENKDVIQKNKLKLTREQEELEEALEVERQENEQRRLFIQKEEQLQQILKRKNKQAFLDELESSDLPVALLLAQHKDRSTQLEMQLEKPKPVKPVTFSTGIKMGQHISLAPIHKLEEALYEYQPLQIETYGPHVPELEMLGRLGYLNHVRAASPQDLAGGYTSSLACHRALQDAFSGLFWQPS

[4] = biological target: CDK12 (aa686-1082)/Cyclin K (Homo sapiens (Human), UniProt Q9NYV4); assay: as above; type: biochemical; conditions: 2 mM ATP; read-out: CDK12 kinase IC50
Sequence of CDK12 (aa686-1082)/Cyclin K (Q9NYV4 686-1082): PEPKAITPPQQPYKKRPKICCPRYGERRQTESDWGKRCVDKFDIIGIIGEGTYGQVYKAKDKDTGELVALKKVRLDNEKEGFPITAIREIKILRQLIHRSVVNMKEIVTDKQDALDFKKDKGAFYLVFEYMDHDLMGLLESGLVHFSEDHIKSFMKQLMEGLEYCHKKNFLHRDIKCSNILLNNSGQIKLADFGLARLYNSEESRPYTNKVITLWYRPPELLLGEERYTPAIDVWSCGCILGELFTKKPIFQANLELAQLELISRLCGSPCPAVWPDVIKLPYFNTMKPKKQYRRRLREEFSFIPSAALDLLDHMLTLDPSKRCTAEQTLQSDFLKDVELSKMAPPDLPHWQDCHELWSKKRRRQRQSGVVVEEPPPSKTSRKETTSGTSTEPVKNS
Sequence of CDK12 (aa686-1082)/Cyclin K (O75909 whole entry partner, the tested form may be a part): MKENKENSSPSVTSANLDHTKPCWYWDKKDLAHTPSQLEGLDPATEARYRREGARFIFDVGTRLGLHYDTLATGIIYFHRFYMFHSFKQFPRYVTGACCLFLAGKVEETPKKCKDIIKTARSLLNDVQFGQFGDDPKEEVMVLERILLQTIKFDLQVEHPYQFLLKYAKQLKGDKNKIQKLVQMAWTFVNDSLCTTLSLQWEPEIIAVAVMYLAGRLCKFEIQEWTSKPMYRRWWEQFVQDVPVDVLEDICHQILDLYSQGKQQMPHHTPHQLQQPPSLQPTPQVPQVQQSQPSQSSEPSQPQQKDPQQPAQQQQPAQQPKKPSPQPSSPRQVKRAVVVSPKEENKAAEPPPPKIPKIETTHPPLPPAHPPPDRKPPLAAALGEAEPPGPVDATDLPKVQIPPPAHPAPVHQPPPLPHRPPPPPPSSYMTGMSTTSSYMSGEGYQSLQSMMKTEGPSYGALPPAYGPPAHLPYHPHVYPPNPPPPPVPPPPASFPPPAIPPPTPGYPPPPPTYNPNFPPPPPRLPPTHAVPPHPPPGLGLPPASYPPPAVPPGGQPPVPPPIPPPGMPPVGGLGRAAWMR
Procedure, shortened: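 Mobility shift kinase assay on CDK9/Cyclin T1 and CDK12 (aa686-1082)/Cyclin K. Ten-point 3-fold dilution series started from a 0.5 mM intermediate solution in DMSO, with compound–enzyme pre-incubation of 0 or 60 min, in duplicate. Staurosporine served as positive control.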

CDK9/Cyclin Tl = CDK9/Cyclin Tl (Homo sapiens (Human), UniProt P50750); assay: as above; type: biochemical; conditions: 2 mM ATP; read-out: CDK9 kinase IC50
Sequence of CDK9/Cyclin Tl (P50750 whole entry): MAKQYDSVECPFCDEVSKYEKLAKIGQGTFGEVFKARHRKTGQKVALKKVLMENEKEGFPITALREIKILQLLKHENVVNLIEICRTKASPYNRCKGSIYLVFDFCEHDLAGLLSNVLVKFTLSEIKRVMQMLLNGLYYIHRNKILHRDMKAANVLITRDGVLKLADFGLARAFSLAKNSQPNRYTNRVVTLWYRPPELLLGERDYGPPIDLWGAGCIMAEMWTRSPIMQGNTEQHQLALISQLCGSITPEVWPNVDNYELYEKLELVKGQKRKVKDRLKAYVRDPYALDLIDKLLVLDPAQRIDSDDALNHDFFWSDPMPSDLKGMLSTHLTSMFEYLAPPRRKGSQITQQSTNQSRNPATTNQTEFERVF
Sequence of CDK9/Cyclin Tl (O60563 whole entry partner): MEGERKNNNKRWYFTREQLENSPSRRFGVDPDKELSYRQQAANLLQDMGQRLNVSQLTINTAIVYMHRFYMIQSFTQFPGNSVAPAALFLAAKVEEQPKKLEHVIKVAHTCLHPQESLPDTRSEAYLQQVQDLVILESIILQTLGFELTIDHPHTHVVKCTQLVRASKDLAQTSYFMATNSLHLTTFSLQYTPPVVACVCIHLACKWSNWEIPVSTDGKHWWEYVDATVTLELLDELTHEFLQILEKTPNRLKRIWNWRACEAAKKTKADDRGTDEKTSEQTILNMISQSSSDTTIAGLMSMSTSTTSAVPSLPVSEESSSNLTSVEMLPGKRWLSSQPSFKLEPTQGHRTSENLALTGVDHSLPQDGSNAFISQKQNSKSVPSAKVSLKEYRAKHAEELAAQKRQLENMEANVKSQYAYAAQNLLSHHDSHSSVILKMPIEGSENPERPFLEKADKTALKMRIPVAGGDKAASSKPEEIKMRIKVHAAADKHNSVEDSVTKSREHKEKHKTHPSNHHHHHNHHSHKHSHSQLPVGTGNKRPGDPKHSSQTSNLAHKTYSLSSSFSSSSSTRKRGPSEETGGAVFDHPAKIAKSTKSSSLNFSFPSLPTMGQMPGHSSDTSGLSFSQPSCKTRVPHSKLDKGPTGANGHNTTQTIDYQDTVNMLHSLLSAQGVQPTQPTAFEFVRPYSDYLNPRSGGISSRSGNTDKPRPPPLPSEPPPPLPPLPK
Procedure, shortened: (§5)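 Human CDK9/Cyclin T1 and CDK2/Cyclin E1 activity measured by mobility shift assay. Compounds tested as 10-point, 3-fold dilution series starting at 0.5 mM (diluted from 10 mM DMSO stock), in duplicate, with 0 min or 60 min compound–enzyme pre-incubation.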

CDK2/Cyclin El = CDK2/Cyclin El (Homo sapiens (Human), UniProt P24941); assay: as above; type: biochemical; conditions: 2 mM ATP; read-out: CDK2 kinase IC50
Procedure, shortened: as §5

lung cancer cell Calu-6 = assay: Cell anti-proliferation experiment, MTT (Table 2); type: cell-based; conditions: Homo sapiens, Calu-6, 72 h, incubate 3 days
Text: as §1, §2, §3, §4

[5] = tested on: breast cancer cells MDA-MB 231; assay: Cell anti-proliferation experiment, MTT (Table 2); type: cell-based; conditions: Homo sapiens, MDA-MB-231, 72 h, incubate 3 days
Text: as §1, §2, §3, §4

[6] = tested on: breast cancer cells MDA-MB453; assay: Cell anti-proliferation experiment, MTT (Table 2); type: cell-based; conditions: Homo sapiens, MDA-MB-453, 72 h, incubate 3 days
Text: as §1, §2, §3, §4

[7] = tested on: colorectal cancer cells HCT-116; assay: Cell anti-proliferation experiment, MTT (Table 2); type: cell-based; conditions: Homo sapiens, HCT-116, 72 h, incubate 3 days
Text: as §1, §2, §3, §4

[8] = tested on: ovarian cancer cells OVCAR3; assay: Cell anti-proliferation experiment, MTT (Table 2); type: cell-based; conditions: Homo sapiens, OVCAR-3, 72 h, incubate 3 days
Text: as §1, §2, §3, §4

[9] = biological target: T1, CDK7/Cyclin H/MAT1 kinase; assay: Enzyme activity test, mobility shift assay (Table 3); type: biochemical; conditions: 2 mM ATP, pre-incubated 0 and 60 minutes
Description: IC50 values of the compounds for CDK7 kinase were detected in Wuxi Biortus Biosciences Co. Ltd.
The compound powder was dissolved in 100% DMSO to prepare a 10 mM storage solution. The storage solution was further diluted to 0.5 mM as the initial concentration, and continuously diluted 3 times to obtain 10 compound solutions with different concentrations. The compound and enzyme were pre-incubated for 0 minutes and 60 minutes, respectively, using duplicate detection.
was used as a positive control, using Mobility shift say method, to detect CDK kinase (such as CDK7, CDK9, CDK12 and CDK2) activity of the compound.

[10] = tested on: breast cancer cells MDA-MB 231; assay: Cell anti-proliferation experiment, MTT (Table 4); type: cell-based, human; conditions: incubate 3 days
Text: as §1, with “OVCAR3,” for “OVCAR3 and A2780,”, “and” for “and WiDr, and”, “cells NCI-H209” for “cell Calu-6”
as §2, with “•” for “1. Cell Plating •”
(§6) • A) Preparing the tested compound gradient dilution solution: TY 2600 1 mM, TY 2601 1 mM, TY-2648a 1 mM, TY-2648b 1 mM and TY-2650 1 mM storage solutions were prepared. Then 1.5 μl of storage solution was dissolved in 1.5 ml of DMSO-free culture solution, and then performed 3-fold continuous gradient dilution with 0.1% DMSO culture solution for a total of 9 concentrations. The concentrations of the diluted compound were as follows: • 333.33 nM, 111.11 nM, 37.03 nM, 12.35 nM, 4.15 nM, 1.37 nM, 0.46 nM, 0.15 nM • B) After full mixing, 100 μL of culture compound solution was taken to replace the culture solution in the cell culture plate, with 4 duplicated wells at each concentration; • C) The cells were transferred to incubator to incubate for 3 days.
as §4, with “•” for “3. MTT Detection •”

[11] = tested on: breast cancer cells MDA-MB453; assay: Cell anti-proliferation experiment, MTT (Table 4); type: cell-based, human; conditions: incubate 3 days
Text: as §1, with “OVCAR3,” for “OVCAR3 and A2780,”, “and” for “and WiDr, and”, “cells NCI-H209” for “cell Calu-6”
as §2, with “•” for “1. Cell Plating •”
as §6
as §4, with “•” for “3. MTT Detection •”

[12] = tested on: colorectal cancer cells HCT-116; assay: Cell anti-proliferation experiment, MTT (Table 4); type: cell-based, human; conditions: incubate 3 days
Text: as §1, with “OVCAR3,” for “OVCAR3 and A2780,”, “and” for “and WiDr, and”, “cells NCI-H209” for “cell Calu-6”
as §2, with “•” for “1. Cell Plating •”
as §6
as §4, with “•” for “3. MTT Detection •”

[13] = tested on: ovarian cancer cells OVCAR3; assay: Cell anti-proliferation experiment, MTT (Table 4); type: cell-based, human; conditions: incubate 3 days
Text: as §1, with “OVCAR3,” for “OVCAR3 and A2780,”, “and” for “and WiDr, and”, “cells NCI-H209” for “cell Calu-6”
as §2, with “•” for “1. Cell Plating •”
as §6
as §4, with “•” for “3. MTT Detection •”

SMILES	IC50 [1] [nM]	IC50 [2] [nM]	pIC50 [3]	pIC50 [4]	pIC50 (CDK9/Cyclin Tl)	pIC50 (CDK2/Cyclin El)	IC50 (lung cancer cell Calu-6) [nM]	IC50 [5] [nM]	IC50 [6] [nM]	IC50 [7] [nM]	IC50 [8] [nM]	pIC50 [9]	IC50 ([10]; Homo sapiens, MDA-MB-231, 72 h) [nM]	IC50 ([11]; Homo sapiens, MDA-MB-453, 72 h) [nM]	IC50 ([12]; Homo sapiens, HCT-116, 72 h) [nM]	IC50 ([13]; Homo sapiens, OVCAR-3, 72 h) [nM]	IC50 [10] [nM]	IC50 [11] [nM]	IC50 [12] [nM]	IC50 [13] [nM]
COC(=O)Nc1ccc2c(-c3nc(N[C@H]4CCCNC4)ncc3C(F)(F)F)c[nH]c2c1OC [Example T-37]	7.65	13.8	> 7.30	< 6.30	< 6.30	6.30 to 7.30	40.1	52.7	10.8	47.8	25.1	–	–	–	–	–	–	–	–	–
COC(=O)Nc1ccc2c(-c3nc(N[C@H]4CCCNC4)ncc3C(F)(F)F)c[nH]c2c1C [Example T-52]	16.1	28.3	> 7.30	< 6.30	< 6.30	< 6.30	107	119	17.7	89.2	51.1	–	–	–	–	–	–	–	–	–
CP(C)(=O)c1c(C#N)ccc2c(-c3nc(N[C@H]4CCC(=O)NC4)ncc3C(F)(F)F)c[nH]c12 [Example 48]	–	–	–	–	–	–	–	–	–	–	–	> 8.00	10 to 500	10 to 500	10 to 500	10 to 500	–	–	–	–
COC(=O)Nc1ccc2c(-c3nc(N[C@H]4CCCNC4)ncc3C(F)(F)F)c[nH]c2c1Br [Example T-01]	7.97	12.2	> 7.30	< 6.30	< 6.30	< 6.30	68.9	145	51.9	62.5	41.8	–	–	–	–	–	–	–	–	–
COC(=O)Nc1ccc2c(-c3nc(N[C@H]4CCC(C)(C)NC4)ncc3C(F)(F)F)c[nH]c2c1P1(=O)CCCC1 [Example 20]	–	–	–	–	–	–	–	–	–	–	–	> 8.00	10 to 500	10 to 500	10 to 500	10 to 500	–	–	–	–
CC1(C)CC[C@H](Nc2ncc(C(F)(F)F)c(-c3c[nH]c4c(P5(=O)CCCC5)nccc34)n2)CN1 [Example 14]	–	–	–	–	–	–	–	–	–	–	–	> 8.00	10 to 500	10 to 500	10 to 500	10 to 500	–	–	–	–
COCCOC(=O)Nc1ccc2c(-c3nc(N[C@H]4CCCNC4)ncc3C(F)(F)F)c[nH]c2c1Br [Example T-62]	12.5	6.35	> 7.30	< 6.30	< 6.30	< 6.30	57	75.5	23.8	55.4	38.8	–	–	–	–	–	–	–	–	–
CC1(C)CC[C@H](Nc2ncc(C(F)(F)F)c(-c3c[nH]c4c(P5(=O)CCCC5)c(C#N)ccc34)n2)CN1 [Example 01]	–	–	–	–	–	–	–	–	–	–	–	> 8.00	10 to 500	10 to 500	10 to 500	10 to 500	–	–	–	–
CCOC(=O)Nc1ccc2c(-c3nc(N[C@H]4CCCNC4)ncc3C(F)(F)F)c[nH]c2c1Br [Example T-42]	12.3	22.2	> 7.30	< 6.30	< 6.30	< 6.30	110	181	77.9	137	98.4	–	–	–	–	–	–	–	–	–
COC(=O)Nc1ccc2c(-c3nc(N[C@H]4CCCNC4)ncc3C(F)(F)F)c[nH]c2c1Cl [Example T-79]	14.2	16.3	> 7.30	< 6.30	< 6.30	< 6.30	114	144	53.1	35.3	69.8	–	–	–	–	–	–	–	–	–
CC1(C)CC[C@H](Nc2ncc(C(F)(F)F)c(-n3cnc4c(P(C)(C)=O)c(C#N)ccc43)n2)CN1 [Example 31]	–	–	–	–	–	–	–	–	–	–	–	> 8.00	–	–	–	–	10 to 500	10 to 500	10 to 500	10 to 500
